ChEMBL document CHEMBL1811766, “Structure-activity relationship studies of novel pyrazole and imidazole carboxamides as cannabinoid-1 (CB1) antagonists” (Bioorg Med Chem Lett, 2011)

Experiments:
[1] = biological target: Cannabinoid receptor 1 (Rattus norvegicus, UniProt P20272); assay: Displacement of [3H]SR141716A from rat brain CB1 receptor at pH 7.4 after 1 hr by liquid scintillation counting
[2] = biological target: Cannabinoid receptor 2 (Homo sapiens) (UniProt P34972); assay: Displacement of [3H]CP55940 from human cannabinoid CB2 receptor expressed in CHO cells at 1 uM at pH 7.4 after 1 hr by liquid scintillation counting; format: cell-based
Chain of Cannabinoid receptor 2 (Homo sapiens) (P34972 whole entry): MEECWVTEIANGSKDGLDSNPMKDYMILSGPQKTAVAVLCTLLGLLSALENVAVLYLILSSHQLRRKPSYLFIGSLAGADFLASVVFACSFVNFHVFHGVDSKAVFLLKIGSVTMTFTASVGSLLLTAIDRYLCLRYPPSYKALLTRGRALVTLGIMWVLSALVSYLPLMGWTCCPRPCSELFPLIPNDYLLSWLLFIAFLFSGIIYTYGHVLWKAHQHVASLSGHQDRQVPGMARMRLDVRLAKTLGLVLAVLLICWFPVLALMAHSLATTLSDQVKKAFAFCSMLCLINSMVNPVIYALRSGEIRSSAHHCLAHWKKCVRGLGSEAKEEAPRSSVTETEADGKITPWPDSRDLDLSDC

[3] = tested on: Mus musculus; assay: Inhibition of WIN-55212 induced hypothermia in Swiss albino mouse assessed as change temperature at 10 mg/kg, po administered 30 mins after WIN55212 challenge measured after 30 mins; format: functional; settings: 0.5 h
[4] = biological target: T1, hERG (KCNH2) (Homo sapiens, UniProt Q12809); assay: Inhibition of human ERG expressed in HEK293 cells assessed as inhibition of potassium channel current at 10 uM after 5 mins by patch clamp assay; format: cell-based; settings: HEK293 cells expressing human ERG
T1 sequence (Q12809 whole entry): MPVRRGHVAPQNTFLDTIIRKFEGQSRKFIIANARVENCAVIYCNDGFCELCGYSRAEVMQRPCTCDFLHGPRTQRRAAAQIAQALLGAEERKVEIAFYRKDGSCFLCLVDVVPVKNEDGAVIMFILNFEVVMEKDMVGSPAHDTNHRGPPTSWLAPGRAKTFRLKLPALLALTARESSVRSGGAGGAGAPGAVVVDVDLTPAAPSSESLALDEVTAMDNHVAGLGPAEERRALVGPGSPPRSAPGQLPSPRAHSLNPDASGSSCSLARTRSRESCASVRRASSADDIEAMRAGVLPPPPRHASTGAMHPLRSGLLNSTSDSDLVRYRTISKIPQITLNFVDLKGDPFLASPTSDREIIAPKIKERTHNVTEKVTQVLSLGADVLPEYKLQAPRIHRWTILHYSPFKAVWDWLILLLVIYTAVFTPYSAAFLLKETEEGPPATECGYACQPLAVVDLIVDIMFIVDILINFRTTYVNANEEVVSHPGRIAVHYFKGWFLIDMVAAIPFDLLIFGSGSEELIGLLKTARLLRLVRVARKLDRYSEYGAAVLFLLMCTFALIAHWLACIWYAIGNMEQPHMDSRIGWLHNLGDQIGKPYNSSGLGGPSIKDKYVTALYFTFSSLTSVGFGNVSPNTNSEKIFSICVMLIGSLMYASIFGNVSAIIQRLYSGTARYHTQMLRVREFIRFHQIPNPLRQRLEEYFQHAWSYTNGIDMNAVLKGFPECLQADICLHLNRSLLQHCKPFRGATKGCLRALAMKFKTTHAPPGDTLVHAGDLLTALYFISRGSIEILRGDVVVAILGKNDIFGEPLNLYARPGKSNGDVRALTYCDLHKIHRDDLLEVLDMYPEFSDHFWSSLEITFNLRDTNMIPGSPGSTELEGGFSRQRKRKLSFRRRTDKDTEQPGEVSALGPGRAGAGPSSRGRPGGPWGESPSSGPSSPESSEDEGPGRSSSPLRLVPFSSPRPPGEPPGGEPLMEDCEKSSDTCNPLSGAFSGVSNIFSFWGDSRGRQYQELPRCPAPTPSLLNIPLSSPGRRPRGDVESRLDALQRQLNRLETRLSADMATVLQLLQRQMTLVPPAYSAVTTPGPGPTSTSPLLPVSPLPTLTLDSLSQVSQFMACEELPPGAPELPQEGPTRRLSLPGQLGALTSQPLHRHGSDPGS

[5] = biological target: Voltage-gated inwardly rectifying potassium channel KCNH2 (Homo sapiens, UniProt Q12809); assay: Inhibition of human ERG expressed in HEK293 cells assessed as inhibition of potassium channel current after 5 mins by patch clamp assay; format: cell-based
Chain of Voltage-gated inwardly rectifying potassium channel KCNH2 (Q12809 whole entry): as above

[6] = biological target: T1, hERG (KCNH2); assay: Inhibition of human ERG expressed in HEK293 cells assessed as inhibition of potassium channel current at 30 uM after 5 mins by patch clamp assay; format: cell-based; settings: HEK293 cells expressing human ERG
[7] = biological target: Cannabinoid receptor 1 (Rattus norvegicus) (UniProt P20272); assay: Displacement of [3H]SR141716A from rat brain CB1 receptor at 100 nM at pH 7.4 after 1 hr by liquid scintillation counting
Chain of Cannabinoid receptor 1 (Rattus norvegicus) (P20272 whole entry): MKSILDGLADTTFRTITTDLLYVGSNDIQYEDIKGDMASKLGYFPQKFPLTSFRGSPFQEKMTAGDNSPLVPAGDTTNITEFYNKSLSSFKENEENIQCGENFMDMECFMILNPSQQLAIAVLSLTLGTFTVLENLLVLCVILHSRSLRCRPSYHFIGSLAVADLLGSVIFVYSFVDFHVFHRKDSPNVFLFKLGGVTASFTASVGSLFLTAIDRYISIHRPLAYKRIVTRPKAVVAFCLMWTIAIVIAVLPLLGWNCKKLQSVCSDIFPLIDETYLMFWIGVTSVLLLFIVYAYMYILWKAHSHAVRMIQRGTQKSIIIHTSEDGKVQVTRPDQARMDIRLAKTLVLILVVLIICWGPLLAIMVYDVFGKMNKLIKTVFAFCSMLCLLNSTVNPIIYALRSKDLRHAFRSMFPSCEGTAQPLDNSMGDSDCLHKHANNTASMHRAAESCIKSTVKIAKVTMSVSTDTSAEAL

[8] = biological target: Cannabinoid receptor 1 (Rattus norvegicus) (UniProt P20272); assay: Displacement of [3H]SR141716A from rat brain CB1 receptor at 1 uM at pH 7.4 after 1 hr by liquid scintillation counting
[9] = tested on: Mus musculus; assay: Antiobesity activity in Swiss albino mouse assessed as reduction in acute food intake at 10 mg/kg, po administered as single dose relative to control; format: functional; parameters: scale not given: the % may be the effect or the level left
[10] = tested on: Mus musculus; assay: Antiobesity activity in Swiss albino mouse assessed as reduction in acute food intake at 30 mg/kg, po administered as single dose relative to control; format: functional; parameters: scale not given: the % may be the effect or the level left
[11] = tested on: Mus musculus; assay: Antiobesity activity in Swiss albino mouse assessed as reduction in acute food intake administered orally as single dose; format: functional, organism-based
[12] = Ratio of drug level in brain to plasma in Swiss albino mouse at 30 mg/kg, po measured 1 hr post dose; format: ADME, organism-based; parameters: dose 30 mg/kg, route oral; settings: read-out: BPR
[13] = AUC (0 to 24 hrs) in Swiss albino mouse at 30 mg/kg, po; format: ADME, organism-based; parameters: time < 24 hr, dose 30 mg/kg, route oral; settings: plasma
[14] = Cmax in Swiss albino mouse at 30 mg/kg, po; format: ADME, organism-based; parameters: dose 30 mg/kg, route oral; settings: in vivo
[15] = Half life in Swiss albino mouse at 30 mg/kg, po; format: ADME, organism-based; parameters: dose 30 mg/kg, route oral; settings: in vivo
[16] = tested on: Mus musculus; assay: Antiobesity activity in C57BL/6 mouse assessed as reduction in body weight at 10 mg/kg, po QD for 15 days; format: functional; parameters: scale not given: the % may be the effect or the level left
[17] = tested on: Mus musculus; assay: Inhibition of WIN-55212 induced hypothermia in Swiss albino mouse assessed as change temperature at 3 mg/kg, po administered 30 mins after WIN55212 challenge measured after 30 mins; format: functional; settings: 0.5 h

Chain of Cannabinoid receptor 1 (P20272 whole entry): as above

Cn1nnnc1C(C)(C)NC(=O)c1nn(-c2ccc(Cl)cc2Cl)c2c1CCCc1cc(Cl)ccc1-2
IC50 [1]: 31 nM

CCc1c(C(=O)NC(C)(C)c2noc(C(F)(F)F)n2)nc(-c2ccc(Cl)cc2Cl)n1-c1ccc(Cl)cc1
IC50 [1]: 3 nM

COCc1c(C(=O)NC(C)(C)c2noc(C(F)(F)F)n2)nn(-c2ccc(Cl)cc2Cl)c1-c1ccc(Cl)cc1
IC50 [1]: 4 nM

Cc1c(C(=O)NC2(c3noc(C(F)(F)F)n3)CCC2)nn(-c2ccc(Cl)cc2Cl)c1-c1ccc(Cl)cc1
IC50 [1]: 0.8 nM

CCc1c(C(=O)NC(C)(C)c2nnnn2C)nn(-c2ccc(Cl)cc2Cl)c1-c1ccc(Cl)cc1
inhibition [2]: 16%
IC50 [1]: 0.5 nM
inhibition in vivo at 10 mg/kg [3]: 96%
inhibition at 5 min, 10 µM [4]: 59.7%

CC(C)(NC(=O)c1nn(-c2ccc(Cl)cc2Cl)c(-c2ccc(Cl)cc2)c1CO)c1noc(C(F)(F)F)n1
inhibition [2]: 34%
IC50 [1]: 0.4 nM
inhibition in vivo at 10 mg/kg [3]: 97%
IC50 [5]: > 30000 nM
inhibition at 5 min, 30 µM [6]: 38.9%

CCCS(=O)(=O)Oc1ccc(-c2c(C)c(C(=O)NC(C)(C)c3nnnn3C)nn2-c2ccc(Cl)cc2Cl)cc1
IC50 [1]: 1.1 nM

O=C(NC1(c2noc(C(F)(F)F)n2)CC1)c1nn(-c2ccc(Cl)cc2Cl)c(-c2ccc(Cl)cc2)c1C(=O)O
inhibition [7]: 44%
inhibition [8]: 66%

COc1ccc2c(c1)CCCc1c(C(=O)NC(C)(C)c3nnnn3C)nn(-c3ccc(Cl)cc3Cl)c1-2
inhibition [7]: 38%

Cc1c(C(=O)NC(C)(C)c2nc(C(F)(F)F)cs2)nn(-c2ccc(Cl)cc2Cl)c1-c1ccc(Cl)cc1
IC50 [1]: 2 nM

CCc1c(C(=O)NC(C)(C)c2nnnn2C)nn(-c2ccc(Cl)cc2Cl)c1-c1ccc(OCC(=O)O)cc1
inhibition [8]: 25%
IC50 [1]: > 1000 nM

Cc1c(C(=O)NC(C)(C)c2nnnn2C)nc(-c2ccc(Cl)cc2Cl)n1-c1ccc(Cl)cc1
inhibition [7]: 42%

C[C@H](NC(=O)C(C)(C)Oc1ccc(C(F)(F)F)cn1)[C@@H](Cc1ccc(Cl)cc1)c1cccc(C#N)c1 [TARANABANT]
IC50 [1]: 0.3 nM

Cc1c(C(=O)NC(C)(C)c2nnc(C(F)(F)F)o2)nn(-c2ccc(Cl)cc2Cl)c1-c1ccc(Cl)cc1
inhibition [2]: 64%
IC50 [1]: 6 nM
inhibition in vivo at 10 mg/kg [3]: 97%

CCOC(=O)c1ccc(-c2c(CC)c(C(=O)NC(C)(C)c3nnnn3C)nn2-c2ccc(Cl)cc2Cl)cc1
IC50 [1]: 17 nM

CCc1c(C(=O)NC(C)(C)c2nnnn2C)nn(-c2ccc(Cl)cc2Cl)c1-c1ccc(C(=O)O)cc1
inhibition [8]: 50%

CCOC(=O)c1c(C(=O)NC2(c3noc(C(F)(F)F)n3)CC2)nn(-c2ccc(Cl)cc2Cl)c1-c1ccc(Cl)cc1
IC50 [1]: 1 nM

CCc1c(C(=O)NC(C)(C)c2nnnn2C)nn(-c2ccc(Cl)cc2Cl)c1-c1ccc(OC)cc1
IC50 [1]: 5 nM

CCc1c(C(=O)NC(C)(C)c2nnnn2C)nn(-c2ccc(Cl)cc2Cl)c1-c1ccc(Br)cc1
inhibition [2]: 27%
IC50 [1]: 0.1 nM
inhibition in vivo at 10 mg/kg [3]: 83%
IC50 [5]: 22700 nM

CCc1c(C(=O)NC(C)(C)c2nnnn2C)nn(-c2ccc(Cl)cc2Cl)c1-c1ccc(C#N)cc1
IC50 [1]: 22 nM

CCOC(=O)c1sc(C(C)(C)NC(=O)c2nn(-c3ccc(Cl)cc3Cl)c(-c3ccc(Cl)cc3)c2C)nc1C
IC50 [1]: 22 nM

O=C(NC1(c2noc(C(F)(F)F)n2)CC1)c1nn(-c2ccc(Cl)cc2Cl)c(-c2ccc(Cl)cc2)c1CO
inhibition [2]: 18%
IC50 [1]: 0.1 nM
inhibition in vivo at 10 mg/kg [3]: 99%

Cc1csc(C(C)(C)NC(=O)c2nn(-c3ccc(Cl)cc3Cl)c(-c3ccc(Cl)cc3)c2C)n1
IC50 [1]: 15 nM

CCc1c(C(=O)NC(C)(C)c2nnnn2C)nc(-c2ccc(Cl)cc2Cl)n1-c1ccc(Cl)cc1
IC50 [1]: 36 nM

CC(C)(NC(=O)c1cn(-c2ccc(Cl)cc2Cl)c(-c2ccc(Cl)cc2)n1)c1noc(C(F)(F)F)n1
IC50 [1]: 30 nM

Cc1c(C(=O)NC(C)(C)c2nnn(C)n2)nn(-c2ccc(Cl)cc2Cl)c1-c1ccc(Cl)cc1
IC50 [1]: 88 nM

CC(C)(NC(=O)c1cn(-c2ccc(Cl)cc2Cl)c(-c2ccc(Cl)cc2)n1)c1nnc(C(F)(F)F)o1
IC50 [1]: 13 nM

Cc1c(C(=O)NC(C)(C)c2noc(C(F)(F)F)n2)nn(-c2ccc(Cl)cc2Cl)c1-c1ccc(Cl)cc1
IC50 [1]: 3 nM

Cc1c(C(=O)NC(C)(C)c2cn3cc(Cl)ccc3n2)nn(-c2ccc(Cl)cc2Cl)c1-c1ccc(Cl)cc1
IC50 [1]: 88 nM

Cc1c(C(=O)NC2(c3noc(C(F)(F)F)n3)CC2)nn(-c2ccc(Cl)cc2Cl)c1-c1ccc(Cl)cc1
inhibition [2]: 49%
IC50 [1]: 0.1 nM
inhibition in vivo at 10 mg/kg [3]: 97%
IC50 [5]: > 30000 nM
inhibition at 5 min, 30 µM [6]: 7.2%
Activity [9]: 31%
Activity [10]: 53%
Activity [11]: Dose-dependent effect
Kp at 1 h [12]: 0.21
AUC(0-t) at 24 h [13]: 4300 ng·h/mL
Cmax [14]: 350 ng/mL
half-life [15]: 4.22 h
Activity [16]: 11%

Cc1ncc(C(C)(C)NC(=O)c2nn(-c3ccc(Cl)cc3Cl)c(-c3ccc(Cl)cc3)c2C)s1
IC50 [1]: 12 nM

CCc1c(C(=O)NC(C)(C)c2nnn(C)n2)nn(-c2ccc(Cl)cc2Cl)c1-c1ccc(Cl)cc1
IC50 [1]: 39 nM

CCOC(=O)Cc1csc(C(C)(C)NC(=O)c2nn(-c3ccc(Cl)cc3Cl)c(-c3ccc(Cl)cc3)c2C)n1
IC50 [1]: 10 nM

CCC(C)(NC(=O)c1nn(-c2ccc(Cl)cc2Cl)c(-c2ccc(Cl)cc2)c1C)c1noc(C(F)(F)F)n1 (stereo not given)
IC50 [1]: 6 nM

Cc1c(C(=O)NC(C)(C)c2nnnn2C)nn(-c2ccc(Cl)cc2Cl)c1-c1ccc(Cl)cc1
IC50 [1]: 145 nM

Cc1c(C(=O)NC(C)(C)c2cn3cccnc3n2)nn(-c2ccc(Cl)cc2Cl)c1-c1ccc(Cl)cc1
IC50 [1]: 121 nM

CCc1c(C(=O)NC(C)(C)c2nnnn2C)nn(-c2ccc(Cl)cc2Cl)c1-c1ccc(O)cc1
inhibition [7]: 23%

Cc1c(C(=O)NC(C)(C)c2nc(CC(=O)O)cs2)nn(-c2ccc(Cl)cc2Cl)c1-c1ccc(Cl)cc1
inhibition [8]: 50%

Cc1c(C(=O)NN2CCCCC2)nn(-c2ccc(Cl)cc2Cl)c1-c1ccc(Cl)cc1 [RIMONABANT]
inhibition [2]: 34%
inhibition in vivo at 3 mg/kg [17]: 99%
IC50 [5]: 2790 nM
Activity [9]: 71%
Kp at 1 h [12]: 3.64

CCOC(=O)COc1ccc(-c2c(CC)c(C(=O)NC(C)(C)c3nnnn3C)nn2-c2ccc(Cl)cc2Cl)cc1
inhibition [7]: 32%

Cc1c(C(=O)NC(C)(C)c2cn3cc(C(F)(F)F)ccc3n2)nn(-c2ccc(Cl)cc2Cl)c1-c1ccc(Cl)cc1
IC50 [1]: 63 nM

Cc1nc(C(C)(C)NC(=O)c2nn(-c3ccc(Cl)cc3Cl)c(-c3ccc(Cl)cc3)c2C)no1
IC50 [1]: 33 nM

Cc1c(C(=O)NC(C)(C)c2cn3ccsc3n2)nn(-c2ccc(Cl)cc2Cl)c1-c1ccc(Cl)cc1
IC50 [1]: 11 nM
